Molecular target: T1, MEF2C (Homo sapiens, UniProt Q06413)
T1 construct: endogenous intracellular protein in Nalm-6 and primary pre-B-ALL cells; untagged; detected by western blot
Experiment: cellular thermal shift assay (CETSA and ITDRF-CETSA), western blot read-out
Format: cell-based
Conditions: Nalm-6 and primary BCR-ABL1- pre-B-ALL cells; dose-response at 52 °C; endogenous MEF2C

T1 sequence (Q06413 whole entry): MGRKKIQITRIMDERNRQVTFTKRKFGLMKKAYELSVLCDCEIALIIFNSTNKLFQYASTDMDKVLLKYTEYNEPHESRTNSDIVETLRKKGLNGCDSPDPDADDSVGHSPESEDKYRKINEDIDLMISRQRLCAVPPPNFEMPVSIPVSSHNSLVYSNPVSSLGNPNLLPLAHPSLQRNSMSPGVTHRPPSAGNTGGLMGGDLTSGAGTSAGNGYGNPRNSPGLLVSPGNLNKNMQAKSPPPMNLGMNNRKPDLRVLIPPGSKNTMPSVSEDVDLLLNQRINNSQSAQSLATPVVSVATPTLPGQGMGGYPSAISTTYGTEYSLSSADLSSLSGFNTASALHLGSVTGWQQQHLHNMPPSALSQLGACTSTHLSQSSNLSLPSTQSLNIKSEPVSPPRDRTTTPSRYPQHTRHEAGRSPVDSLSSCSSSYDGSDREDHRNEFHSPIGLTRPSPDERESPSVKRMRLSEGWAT

With `Nc1ccccc1NC(=O)CCCCCC(=O)Nc1cccc(Br)c1` [CC1007] the “thermal stabilisation (CETSA)” value was “These data indicate that CC1007 directly interacts with intracellular MEF2C”.

— publication PMC7483467, “A small molecular compound CC1007 induces cross-lineage differentiation by inhibiting HDAC7 expression and HDAC7/MEF2C interaction in BCR-ABL1^− pre-B-ALL” (Cell Death & Disease, 2020)
